Where “and” joins values, the source holds several entries; their conditions need not be identical. Identical values can stand only once.
Experiments:
[1] = molecular target: L. blandensis RNR, a-site (NrdB-linked ATP-cone) (Leeuwenhoekiella blandensis, UniProt A3XHF9); test: Enzyme activity assay with wild type NrdB (overall activity regulation, a-site); assay type: biochemical; conditions: for interaction with the a-site (effect on GDP reduction): 2 mM nucleotide, s-site saturating dTTP (2 mM), 4 µM NrdA and 1 µM NrdB
Experimental: (§1) Enzyme assays were performed at room temperature in 50 mM Tris-HCl at pH 8 in volumes of 50 μl. Reaction conditions, giving maximal activity were determined experimentally. […] Mixtures of 0.5 μM NrdA and 2 μM wild type NrdB or NrdB∆99 (for determination of s-site KL) (Figure 3a–b) or 0.5 μM of NrdB and 2 uM NrdA (for determination of a-site KL), (Figure 3c–f) were used. Some components were explicitly varied in specific experiments. Generally, 0.8 mM CDP was used as substrate. […] When dTTP was used as an s-site effector, 0.5 mM or 0.8 mM GDP was used as substrate. In four substrate assays, the four substrates CDP, ADP, GDP and UDP were simultaneously present in the mixture at concentrations of 0.5 mM each. The substrate mixture was added last to start the reactions. Certain assays were performed in the presence of Mn(CH3COO)2 or FeNH4(SO4): 20 μM of the indicated metal was added to 10 μM NrdB or NrdB∆99 protein, incubated for 10 min, mixed with NrdA and added to the reaction mixture.
(§2) Enzyme reactions were incubated for 10–30 min and then stopped by the addition of methanol. The chosen incubation time gave a maximum substrate turnover of 30%. […] Compound identification was achieved by comparison with injected standards. Relative quantification was obtained by peak height measurements in the chromatogram (UV absorbance at 271 nm) in relation to standards. Specific activities of either NrdA (Figure 2a–b) or NrdB (Figure 2c–f) were determined. Specific activities varied between protein preparations. In some cases the data was standardized to activity percent, where 100% was determined as maximum enzyme activity in a specific condition.
(§3) From a direct plot of activity versus concentration of effector, the KL values for binding of effectors to the s-site and the a-site, were calculated in SigmaPlot using the equation: V=Vmax×[dNTP]/(KL+[dNTP]) and Ki for non-competitive dATP inhibition at NrdB was calculated in Sigmaplot using the equation: V=Vmax/(1+[dNTP]/Ki)

NrdB [2] = molecular target: T1, NrdB (Leeuwenhoekiella blandensis, UniProt A3XHF9); test: Isothermal titration calorimetry (ITC), nucleotide binding to NrdB; conditions: for -TΔS / ΔG / ΔH / N (binding stoichiometry) / Kd: 10°C; for N (binding stoichiometry): per NrdB monomer, for dATP kept constant N = 2, 59% active protein; for lower affinity compared to dATP: from Kd, ITC; for Kd: one-set-of-sites model
Experimental: Isothermal titration calorimetry (ITC) experiments were carried out on a MicroCal PEAQ-ITC system (Malvern Instruments Ltd) in a buffer containing 25 mM HEPES (pH 7.65), 150 mM NaCl, and 10% glycerol, 2 mM tris(2-carboxyethyl)phosphine, and 5 mM MgCl2. Measurements were done at 10°C. The initial injection volume was 0.4 μl over a duration of 0.8 s. All subsequent injection volumes were 2–2.5 μl over 4–5 s with a spacing of 150 s between the injections. Data for the initial injection were not considered. For dATP binding analysis, the concentration of NrdB in the cell was 12 µM and dATP in syringe 120 or 140 µM. Reverse titrations were performed with 113 µM NrdB in the syringe and 12 or 30 µM dATP in the cell. For titration of dATP into NrdB∆99, protein concentration in the cell and dATP concentration in the syringe were 50 µM and 900 µM respectively. […] For titration of ATP into NrdB, cell and syringe concentrations were 50 and 1600 µM respectively. The data were analyzed using the built-in one set of sites model of the MicroCal PEAQ-ITC Analysis Software (Malvern Instruments Ltd). A fixed ligand/protein stoichiometry of 2 was used for dATP to NrdB titrations. Standard deviations in thermodynamic parameters, N and Kd were estimated from the fits of three different titrations.

NrdB [3] = molecular target: T1, NrdB; test: GEMMA analysis of NrdB oligomers; conditions: for effect on NrdB oligomer equilibrium: 50 µM nucleotide, 0.1 mg/ml NrdB (~2 µM)
Experimental: In GEMMA, biomolecules are electrosprayed into gas phase, neutralized to singly charged particles, and the gas phase electrophoretic mobility is measured with a differential mobility analyzer. The mobility of an analyzed particle is proportional to its diameter, which therefore allows for quantitative analysis of the different particle sizes contained in a sample ([Kaufman et al., 1996]). The GEMMA instrumental setup and general procedures were as described previously ([Rofougaran et al., 2008]). NrdA, NrdB and NrdB∆99 proteins were equilibrated by Sephadex G-25 chromatography into a buffer containing 100 mM ammonium acetate, pH 7.8. In addition, 2 mM DTT was added to the NrdA protein solutions to increase protein stability. Prior to GEMMA analysis, the protein samples were diluted to a concentration of 0.025–0.1 mg/ml in a buffer containing 20 mM ammonium acetate, pH 7.5, 0.005% (v/v) Tween 20, nucleotides (when indicated), and magnesium acetate (equimolar to the total nucleotide concentration), incubated for 5 min at room temperature, centrifuged and applied to the GEMMA instrument. Protein concentrations higher than normally recommended for GEMMA were needed to see the larger oligomeric complexes and the experiments to measure NrdA-NrdB interactions were run at as low flow rate as possible (driven by 1.4 Psi pressure) to minimize false interactions that may appear with elevated protein concentration if the flow-rate recommended by the manufacturer is used (3.7 Psi). Most of our experiments were performed with a flow rate driven by 2 Psi.

[4] = test system: L. blandensis class I RNR; test: Four-substrate activity assay, allosteric specificity regulation; assay type: biochemical, Leeuwenhoekiella blandensis; conditions: all four substrates 0.5 mM each, effector 2 mM, 1 µM NrdB and 4 µM NrdA
Experimental: as §1, §2

[5] = test system: L. blandensis RNR (wild-type NrdB or NrdB∆99); test: Metal-dependency of enzyme activity; assay type: biochemical, Leeuwenhoekiella blandensis; conditions: metal added to cultures or 20 µM divalent metal ions to 10 µM NrdB
Experimental: Overnight cultures of E. coli BL21(DE3)/pET28a(+) bearing pET-nrdA, pET-nrdB and pET-nrdB∆99 were diluted to an absorbance at 600 nm of 0.1 in LB (Luria-Bertani) liquid medium, containing kanamycin (50 μg/ml) and shaken vigorously at 37°C. At an absorbance at 600 nm of 0.8, isopropyl-β-D-thiogalactopyranoside (Sigma) was added to a final concentration of 0.01 mM for NrdA expression and 0.5 mM for NrdB and NrdB∆99 expression. For particular experiments, 0.5 mM MnSO4 or 0.5 mM FeNH4(SO4)2 or the combination of both metals (0.4 mM and 0.25 mM respectively) were added to NrdB∆99 cultures. The cells were grown overnight at 14°C for NrdA expression and 20°C for NrdB and NrdB∆99 expression and harvested by centrifugation.
(§4) Enzyme assays were performed at room temperature in 50 mM Tris-HCl at pH 8 in volumes of 50 μl. Reaction conditions, giving maximal activity were determined experimentally. […] Mixtures of 0.5 μM NrdA and 2 μM wild type NrdB or NrdB∆99 (for determination of s-site KL) (Figure 3a–b) or 0.5 μM of NrdB and 2 uM NrdA (for determination of a-site KL), (Figure 3c–f) were used. Some components were explicitly varied in specific experiments. Generally, 0.8 mM CDP was used as substrate. […] When dTTP was used as an s-site effector, 0.5 mM or 0.8 mM GDP was used as substrate. […]

s-site in NrdA = molecular target: T2, s-site in NrdA (Leeuwenhoekiella blandensis, UniProt A3XHF8); test: Enzyme activity assay, CDP reduction, effector titration with NrdB∆99 (s-site); assay type: biochemical; conditions: 0.5 µM NrdA and 2 µM NrdB∆99, read-out: KL (s-site), concentration of allosteric effector that gives half maximal enzyme activity
T2 sequence (A3XHF8 1-600): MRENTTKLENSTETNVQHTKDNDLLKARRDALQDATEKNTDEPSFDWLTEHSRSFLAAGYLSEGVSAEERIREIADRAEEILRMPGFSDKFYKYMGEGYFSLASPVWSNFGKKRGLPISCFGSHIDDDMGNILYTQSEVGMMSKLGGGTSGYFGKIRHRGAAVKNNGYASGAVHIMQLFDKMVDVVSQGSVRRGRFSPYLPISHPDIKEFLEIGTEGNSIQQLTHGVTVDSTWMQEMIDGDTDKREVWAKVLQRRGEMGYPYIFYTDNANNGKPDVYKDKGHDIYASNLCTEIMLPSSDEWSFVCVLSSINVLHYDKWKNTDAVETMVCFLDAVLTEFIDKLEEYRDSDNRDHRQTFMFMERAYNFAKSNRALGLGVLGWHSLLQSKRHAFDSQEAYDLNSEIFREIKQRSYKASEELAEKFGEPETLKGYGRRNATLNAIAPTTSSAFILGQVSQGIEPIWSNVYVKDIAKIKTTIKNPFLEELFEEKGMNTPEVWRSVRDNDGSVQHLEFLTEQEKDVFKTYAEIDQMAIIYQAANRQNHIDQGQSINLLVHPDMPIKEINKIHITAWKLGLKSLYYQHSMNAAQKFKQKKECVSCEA
T2 sequence (A3XHF9 100-427 partner): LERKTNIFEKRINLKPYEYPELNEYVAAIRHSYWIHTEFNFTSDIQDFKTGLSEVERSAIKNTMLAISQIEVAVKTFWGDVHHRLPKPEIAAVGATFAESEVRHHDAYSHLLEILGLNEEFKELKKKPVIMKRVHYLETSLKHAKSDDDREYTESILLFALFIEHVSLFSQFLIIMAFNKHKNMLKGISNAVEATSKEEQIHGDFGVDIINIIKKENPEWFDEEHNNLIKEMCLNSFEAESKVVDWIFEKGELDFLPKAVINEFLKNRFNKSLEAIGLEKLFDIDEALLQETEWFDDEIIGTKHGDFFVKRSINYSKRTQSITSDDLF
Experimental: as §4
Enzyme reactions were incubated for 10–30 min and then stopped by the addition of methanol. […] Relative quantification was obtained by peak height measurements in the chromatogram (UV absorbance at 271 nm) in relation to standards. Specific activities of either NrdA (Figure 2a–b) or NrdB (Figure 2c–f) were determined. […] In some cases the data was standardized to activity percent, where 100% was determined as maximum enzyme activity in a specific condition.
as §3

T1 sequence (A3XHF9 entry or part of it): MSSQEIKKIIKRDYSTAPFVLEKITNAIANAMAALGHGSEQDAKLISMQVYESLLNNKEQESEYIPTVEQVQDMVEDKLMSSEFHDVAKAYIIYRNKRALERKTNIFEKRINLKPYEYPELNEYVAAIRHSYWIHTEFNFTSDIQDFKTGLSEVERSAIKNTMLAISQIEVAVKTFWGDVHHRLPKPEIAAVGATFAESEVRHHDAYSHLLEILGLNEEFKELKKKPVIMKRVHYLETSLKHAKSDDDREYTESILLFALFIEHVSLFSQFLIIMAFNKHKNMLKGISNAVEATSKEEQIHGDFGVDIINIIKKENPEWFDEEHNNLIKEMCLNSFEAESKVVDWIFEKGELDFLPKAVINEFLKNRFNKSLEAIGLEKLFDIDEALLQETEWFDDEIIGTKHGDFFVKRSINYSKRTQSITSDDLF
Sequence of L. blandensis RNR, a-site (NrdB-linked ATP-cone) (A3XHF9 entry or part of it, one chain of several): as the sequence (A3XHF9 entry or part of it) above

## dADP
[1]
  interaction with the a-site (effect on GDP reduction): found to interact
[1]; CDP reduction (3 mM CDP), 2 µM NrdA and 0.5 µM NrdB
  effect of titration on enzyme activity: inhibited the enzyme activity, although less strongly than dATP
NrdB [2]
  -TΔS: 18.4 ± 1.9 kcal/mol
  ΔG: -6.21 kcal/mol
  ΔH: -24.6 kcal/mol and -24.6 ± 2.2 kcal/mol
  N (binding stoichiometry): 2.1 and 2.1 ± 0.2
  lower affinity compared to dATP: 15 fold
NrdB [3]
  effect on NrdB oligomer equilibrium: induced formation of NrdB tetramers, although less efficiently than with dATP

## Nc1nc2c(ncn2[C@H]2C[C@H](O)[C@@H](COP(=O)(O)OP(=O)(O)OP(=O)(O)O)O2)c(=O)[nH]1 [dGTP]
[4]
  effect of s-site effector on substrate reduction: stimulated the reduction of ADP and GDP

## CC(=O)[O-].CC(=O)[O-].[Mn+2] [Mn, Mn(CH3COO)2]
[5]
  effect of metal on catalytic activity: increase in catalytic activity

## O=S(=O)([O-])[O-].O=S(=O)([O-])[O-].[Fe+2].[NH4+].[NH4+] [Fe^2+, FeNH4(SO4)]
[5]
  effect of metal on catalytic activity: inhibition

## Nc1ncnc2c1ncn2[C@@H]1O[C@H](COP(=O)(O)O)[C@@H](O)[C@H]1O [AMP]
[1]
  interaction with the a-site (effect on GDP reduction): no effect

## Nc1ncnc2c1ncn2[C@@H]1O[C@H](COP(=O)(O)OP(=O)(O)O)[C@@H](O)[C@H]1O [ADP]
[1]
  interaction with the a-site (effect on GDP reduction): no effect

## Nc1ncnc2c1ncn2[C@H]1C[C@H](O)[C@@H](COP(=O)(O)OP(=O)(O)OP(=O)(O)O)O1 [dATP]
[1]
  Ki: 20 µM
[1]; CDP reduction, 0.5 µM NrdA and 2 µM wild type NrdB, activates at low concentrations
  concentration at which inhibitory: ≥ 30 µM
NrdB [2]
  -TΔS: 11.2 ± 2.39 kcal/mol
  ΔG: -7.89 kcal/mol
  ΔH: -18.9 kcal/mol and -18.9 ± 2.39 kcal/mol
  Kd: 1 ± 0.2 µM
  N (binding stoichiometry): 2
NrdB [3]
  effect on NrdB oligomer equilibrium: dramatically shifted the equilibrium towards tetramers β4
NrdB [3]; GEMMA, 2 Psi, NrdB (~1 μM), read-out: concentration at which NrdB tetramers reach half-maximum mass concentration
  EC50: ~10 µM
s-site in NrdA
  EC50: 1.4 µM

## Cc1cn([C@H]2C[C@H](O)[C@@H](COP(=O)(O)OP(=O)(O)OP(=O)(O)O)O2)c(=O)[nH]c1=O [dTTP]
[4]
  effect of s-site effector on substrate reduction: stimulated the reduction of GDP

## Nc1ncnc2c1ncn2[C@H]1C[C@H](O)[C@@H](COP(=O)(O)O)O1 [dAMP]
[1]
  interaction with the a-site (effect on GDP reduction): no effect

## Nc1ncnc2c1ncn2[C@@H]1O[C@H](COP(=O)(O)OP(=O)(O)OP(=O)(O)O)[C@@H](O)[C@H]1O [ATP]
[1]
  EC50: 96 µM
[1]; CDP reduction, 0.5 µM NrdA and 2 µM wild type NrdB
  effect on enzyme activity: clearly activated the enzyme
NrdB [2]
  -TΔS: 4.78 ± 0.96 kcal/mol
  ΔG: -5.74 kcal/mol
  Kd: 38 ± 2 µM
  N (binding stoichiometry): 2.2 and 2.2 ± 0.4
  lower affinity compared to dATP: 38 fold
[4]
  effect of s-site effector on substrate reduction: stimulated the reduction of CDP and UDP
s-site in NrdA
  EC50: 30 µM

Source: publication PMC5794259, “Novel ATP-cone-driven allosteric regulation of ribonucleotide reductase via the radical-generating subunit” (eLife, 2018)
